The values that follow come from article PMC11845477, “Exploring the principles behind antibiotics with limited resistance” (Nature Communications, 2025).

Where a SMILES comes first, the peptide text is derived from it. Bridges are numbered along the chain shown (N, C = ends). [ ]: non-standard residue; d: D form. The star is where a group is joined. X2 = CC[C@H](C)CCCCC(=O)*; Dab = NCC[C@H](N)C(=O)O Where only a bound is given, the exact number is not on record here.

Assay [1] concerns K. pneumoniae ATCC 10031 (SEN) and K. pneumoniae ATCC 700603 (MDR). Kind of assay: microbe, parasite or virus in culture. The settings on record: for MIC of ancestor: ancestor strain; for MIC: across three biological replicates. It is filed as cell-based, Klebsiella pneumoniae. How it is done:
(§1) This study focused on multiple bacterial strains, as follows. For the FoR and ALE experiments, 2 strains per species were chosen: E. coli ATCC 25922, K. pneumoniae ATCC 10031, A. baumannii ATCC 17978, and P. aeruginosa ATCC BAA-3107 as sensitive (SEN) strains, and E. coli NCTC13846, K. pneumoniae ATCC 700603, A. baumannii ATCC BAA-1605 and P. aeruginosa LESB58 as multi-drug resistant (MDR) strains. Functional metagenomic screens were performed with E. coli ATCC 25922 and K. pneumoniae ATCC 10031 strains. To determine the dose-kill properties of the different antibiotics, an E. coli strain (ATCC 25922) expressing a yellow fluorescent protein (pZS2R, YFP, CHL^R) and a red fluorescent protein (pZS2R, mCherry, CHL^R) was used.
(§2) Unless otherwise indicated, cation-adjusted Mueller-Hinton Broth 2 (MHB, Millipore) medium was used throughout the study, except for SCH79797 (SCH).
(§3) A robotic liquid handling system was used to automatically prepare a 11 to 16-step serial dilution in 384-well microtiter plates (Greiner). A final concentration of 5 × 10^5 bacterial cells per mL were inoculated into each well containing 60 µL MHB medium. Bacterial cultures were incubated at 37 °C with continuous shaking (Infors shaker, 900 rpm with 3 mm throw) for 18 hours (2 replicates from each). Cell growth was monitored by measuring the optical density (OD600 values, using Biotek Synergy microplate reader). MIC was defined as the antibiotic concentration of complete growth inhibition (i.e., OD600 < 0.05). Relative MIC was calculated as follows:1 relativeMIC=MICevolved/MICancestor

The test system of assay [2] is E. coli ATCC 25922 (SEN) and E. coli NCTC13846 (MDR). Kind of assay: microbe, parasite or virus in culture. It counts as cell-based, Escherichia coli. The note with it: for MIC: across three biological replicates; for MIC of ancestor: ancestor strain. The procedure: as §1, §2, §3
Assay [3] relates to P. aeruginosa ATCC BAA-3107 (SEN) and P. aeruginosa LESB58 (MDR). Kind of assay: microbe, parasite or virus in culture. The settings on record: for MIC: across three biological replicates; for MIC of ancestor: ancestor strain. It counts as cell-based, Pseudomonas aeruginosa. The procedure:
as §1, §2, §3

Assay [4] deals with A. baumannii ATCC 17978 (SEN) and A. baumannii ATCC BAA-1605 (MDR). As to the kind of experiment: microbe, parasite or virus in culture. It is filed as cell-based, Acinetobacter baumannii. The note with it: for MIC of ancestor: ancestor strain; for MIC: across three biological replicates. The procedure: as §1, §2, §3
For assay [5], the system named is K. pneumoniae ATCC 10031 (SEN) and K. pneumoniae ATCC 700603 (MDR). Kind of assay: Frequency-of-resistance (FoR) assay, relative MIC of mutants. It is filed as cell-based, Klebsiella pneumoniae. The settings on record: for MIC: Klebsiella pneumoniae. How it is done: The susceptibility of antibiotics to resistance development was evaluated in two strains of each bacterial species: a multidrug-resistant strain and an antibiotic-sensitive strain of Escherichia coli, Klebsiella pneumoniae, Acinetobacter baumannii, and Pseudomonas aeruginosa. To explore first-step resistance, we previously used a standard protocol for spontaneous frequency-of-resistance analysis (FoR assay) at multiple concentrations of each antibiotic[10],[28],[31]–[33]. […] For all other combinations, approximately 10^10 bacterial cells were exposed to one of each antibiotic on agar plates for two days at concentrations where the given strain is susceptible. We examined resistance levels by contrasting the minimum inhibitory concentration (MICs) of the mutated strains to the original wild-type bacterial strain (i.e., relative MIC).
To estimate the frequency of spontaneous mutations that confer resistance in a microbial population, we conducted a frequency of resistance (FoR) assay following established protocols[10],[31]–[33]. […] Prior to plating, bacteria were grown overnight in MHB medium at 37 °C and 250 RPM, then centrifuged and washed in MHB. All experiments were performed in triplicate, and plates were incubated at 37 °C for 48 hours. Total colony-forming units (CFUs) were determined by plating appropriate dilutions onto antibiotic-free MHB agar. Resistance frequencies were calculated by dividing the number of resistant colonies by the initial viable cell count. From the plates with the highest antibiotic concentration, ten colonies were selected for MIC determination and whole-genome sequencing.
as §3, with “relativeMIC=MICevolved/MICancestor […]” for “relativeMIC=MICevolved/MICancestor”
Supplementary Figure 3. Resistance levels following the frequency of resistance assay across bacterial strains. The level of resistance was measured as the fold change in relative MIC between evolved and ancestral strains. Data are grouped by bacterial strain (A. baumannii (AB), E. coli (EC), K. pneumoniae (KP), and P. aeruginosa (PA)) and categorized as either multidrug-resistant (MDR) or sensitive (SEN). Each data point represents a laboratory evolved line, and boxplots show the median, first and third quartiles, with whiskers indicating the 5th and 95th percentiles. […]
analysis was performed using two-sided Dunn’s post-hoc test with Benjamini-Hochberg correction for multiple comparisons (**/ * indicates p < 0.01/ 0.05). For detailed information on antibiotic and bacterial species, see Supplementary Table 1. For mode of action groups, refer to Table 1. Source data are provided as a Source Data file.

[6] abbreviates: Klebsiella pneumoniae ATCC 10031 (KP-SEN).
The mark [7] stands for this setting: Klebsiella pneumoniae ATCC 10031 (KP-SEN), sheet fig 2a.
Setting [8] is: Klebsiella pneumoniae ATCC 700603 (KP-MDR).
Setting [9] is: Klebsiella pneumoniae ATCC 700603 (KP-MDR), sheet fig 2a.
Where [10] appears, read: Klebsiella pneumoniae, Klebsiella pneumoniae ATCC 10031 (KP-SEN).
[11] abbreviates: Klebsiella pneumoniae, Klebsiella pneumoniae ATCC 700603 (KP-MDR).
The mark [12] stands for this setting: Escherichia coli, Escherichia coli ATCC 25922 (EC-SEN).
[13] abbreviates: Escherichia coli, Escherichia coli NCTC 13846 (EC-MDR).
The mark [14] stands for this setting: Pseudomonas aeruginosa, ATCCBAA3107, Pseudomonas aeruginosa ATCC BAA-3107 (PA-SEN).
The mark [15] stands for this setting: Pseudomonas aeruginosa, ATCCBAA3107, Pseudomonas aeruginosa LESB 58 (PA-MDR).
Where [16] appears, read: Acinetobacter baumannii ATCC 17978 (AB-SEN).
Where [17] appears, read: Acinetobacter baumannii ATCC 17978 (AB-SEN), sheet fig 2a.
Setting [18] is: Acinetobacter baumannii, Acinetobacter baumannii ATCC 17978 (AB-SEN).
The mark [19] stands for this setting: Acinetobacter baumannii, Acinetobacter baumannii ATCC BAA-1605 (AB-MDR).
[20] abbreviates: Klebsiella pneumoniae ATCC 10031 (KP-SEN), evolved line 1 versus ancestor.
The mark [21] stands for this setting: Klebsiella pneumoniae ATCC 10031 (KP-SEN), evolved line 2 versus ancestor.
The mark [22] stands for this setting: Klebsiella pneumoniae ATCC 10031 (KP-SEN), evolved line 3 versus ancestor.
Where [23] appears, read: Klebsiella pneumoniae ATCC 700603 (KP-MDR), evolved line 1 versus ancestor.
[24] abbreviates: Klebsiella pneumoniae ATCC 700603 (KP-MDR), evolved line 2 versus ancestor.
The mark [25] stands for this setting: Klebsiella pneumoniae ATCC 700603 (KP-MDR), evolved line 3 versus ancestor.
The mark [26] stands for this setting: read-out: MIC of evolved line, Klebsiella pneumoniae ATCC 10031 (KP-SEN), evolved line 1.
The mark [27] stands for this setting: read-out: MIC of evolved line, Klebsiella pneumoniae ATCC 10031 (KP-SEN), evolved line 2.
The mark [28] stands for this setting: read-out: MIC of evolved line, Klebsiella pneumoniae ATCC 700603 (KP-MDR), evolved line 1.
[29] abbreviates: read-out: MIC of evolved line, Klebsiella pneumoniae ATCC 700603 (KP-MDR), evolved line 2.
Setting [30] is: Escherichia coli ATCC 25922 (EC-SEN).
[31] abbreviates: Pseudomonas aeruginosa LESB 58 (PA-MDR).
Where [32] appears, read: Escherichia coli NCTC 13846 (EC-MDR).
Where [33] appears, read: Pseudomonas aeruginosa ATCC BAA-3107 (PA-SEN).
[34] abbreviates: Acinetobacter baumannii ATCC BAA-1605 (AB-MDR).

Regarding `CN[C@@H]1[C@@H](O[C@H]2O[C@H](CO)[C@@H](N)[C@H](O)[C@H]2O)OC2C[C@@H](N)[C@@H](O[C@H]3[C@H](O)[C@@H](O)[C@H](N)C[C@@H]3N)OC2[C@@H]1O` (some centres unmarked) [Apramycin], the MIC of ancestor came out at 2 µg/mL in assay [1] (setting [6]); 2 µg/mL in assay [1] (setting [7]); 4 µg/mL in assay [1] (setting [8]); 4 µg/mL in assay [1] (setting [9]); 4 µg/mL in assay [4] (setting [16]); 4 µg/mL in assay [4] (setting [17]). For the same compound, the MIC in assay [1] (setting [10]) was 2 µg/mL; in assay [1] (setting [11]), 4 µg/mL; in assay [2] (setting [12]), 16 µg/mL; in assay [2] (setting [13]) it was 8 µg/mL; in assay [3] (setting [14]) it was 8 µg/mL; in assay [3] (setting [15]), above 32 µg/mL. The MIC in assay [4] (setting [18]) was 4 µg/mL; in assay [4] (setting [19]), 8 µg/mL; in assay [5] (setting [26]), 16 µg/mL; in assay [5] (setting [27]) it was 16 µg/mL; in assay [5] (setting [28]) it was 8 µg/mL; in assay [5] (setting [29]), 8 µg/mL. The “Relative MIC” value amounted to 8 in assay [5] (setting [20]); 8 in assay [5] (setting [21]); 2 in assay [5] (setting [22]); 2 in assay [5] (setting [23]); 2 in assay [5] (setting [24]); 1 in assay [5] (setting [25]).
For `Nc1nc(-n2cc(C(=O)O)c(=O)c3cc(F)c(N4CC(O)C4)c(Cl)c32)c(F)cc1F` [Delafloxacin], the MIC of ancestor in assay [1] (setting [6]) was 0.00195 µg/mL; in assay [1] (setting [7]), 0.00195 µg/mL; in assay [1] (setting [8]), 1 µg/mL; in assay [1] (setting [9]), 1 µg/mL; in assay [2] (setting [30]), 0.0312 µg/mL; in assay [2] (Escherichia coli ATCC 25922 (EC-SEN), sheet fig 2a), 0.0312 µg/mL. Also, the MIC of ancestor in assay [3] (P. aeruginosa LESB 58 (PA-MDR), sheet fig 2a) is 2 µg/mL; in assay [3] (Pseudomonas aeruginosa ATCC BAA 3107 (PA-SEN)) it was 0.0156 µg/mL; in assay [3] (setting [31]), 2 µg/mL; in assay [4] (setting [16]), 0.0625 µg/mL; in assay [4] (setting [17]), 0.0625 µg/mL. Further, the MIC was 0.00195 µg/mL in assay [1] (setting [10]); 1 µg/mL in assay [1] (setting [11]); 0.0312 µg/mL in assay [2] (setting [12]); 16 µg/mL in assay [2] (setting [13]); below 0.0312 µg/mL in assay [3] (setting [14]); 2 µg/mL in assay [3] (setting [15]). Further, the MIC in assay [4] (setting [18]) was found to be 0.0625 µg/mL; in assay [4] (setting [19]), 8 µg/mL; in assay [5] (setting [26]) it was 0.0625 µg/mL; in assay [5] (setting [27]), 0.125 µg/mL; in assay [5] (read-out: MIC of evolved line, Klebsiella pneumoniae ATCC 10031 (KP-SEN), evolved line 3), 0.0625 µg/mL; in assay [5] (setting [28]), 4 µg/mL. In addition, the MIC in assay [5] (setting [29]) is 4 µg/mL; in assay [5] (read-out: MIC of evolved line, Klebsiella pneumoniae ATCC 700603 (KP-MDR), evolved line 3), 4 µg/mL. For the same compound, the “Relative MIC” value was 32 in assay [5] (setting [20]); 64 in assay [5] (setting [21]); 32 in assay [5] (setting [22]); 4 in assay [5] (setting [23]); 4 in assay [5] (setting [24]); 4 in assay [5] (setting [25]).
For `CC[C@H](C)CCCCC(=O)N[C@@H](CCN)C(=O)N[C@H](C(=O)N[C@@H](CCN)C(=O)N[C@H]1CCNC(=O)[C@H]([C@@H](C)O)NC(=O)[C@H](CCN)NC(=O)[C@H](CCN)NC(=O)[C@H](CC(C)C)NC(=O)[C@@H](Cc2ccccc2)NC(=O)[C@H](CCN)NC1=O)[C@@H](C)O` [Polymyxin B] (X2-[Dab]T[Dab][Dab][Dab][dF]L[Dab][Dab]T; lactam 4-C (inferred); N-terminus assumed), the MIC came to 2 µg/mL in assay [1] (setting [6]); 1 µg/mL in assay [1] (setting [8]); 1 µg/mL in assay [2] (setting [30]); 4 µg/mL in assay [2] (setting [32]); 1 µg/mL in assay [3] (setting [33]); 2 µg/mL in assay [3] (setting [31]). Besides, the MIC in assay [4] (setting [16]) and in assay [4] (setting [34]) was 1 µg/mL throughout.
Take POL7306: the MIC came out at 1 µg/mL in assay [1] (setting [6]); 1 µg/mL in assay [1] (setting [8]); 1 µg/mL in assay [2] (setting [30]); 4 µg/mL in assay [2] (setting [32]); 2 µg/mL in assay [3] (setting [33]); 8 µg/mL in assay [3] (setting [31]). Besides, the MIC in assay [4] (setting [16]) and in assay [4] (setting [34]) was 1 µg/mL each time.
